# Paper PMC13183915, “A platinum butterfly effect: small changes turn an anticancer drug into a non-toxic metalloantibiotic with in vivo efficacy” (npj Antimicrobials and Resistance, 2026)
# Where “and” joins values, the source holds several entries; their conditions need not be identical. Equal entries are not always repeated.
# Key:
# [1] = tested on: methicillin-sensitive Staphylococcus aureus (MSSA), clinical isolate; assay: MIC assay, MSSA clinical isolate; format: cell-based; conditions: Staphylococcus aureus, MSSA
# [2] = tested on: methicillin-resistant S. aureus (MRSA) COL; assay: MIC assay, MRSA COL; format: cell-based, Staphylococcus aureus; conditions: Staphylococcus aureus, MRSA
# Bacillus subtilis MW168 = assay: MIC assay, B. subtilis MW168; format: cell-based; conditions: Bacillus subtilis, MW168
# MSSA ATCC 29213 = assay: Broth microdilution MIC, MSSA ATCC 29213; format: cell-based, S. aureus; conditions: Staphylococcus aureus
# Experimental: (§1) The data is given in supporting information (Table S5). Before starting the experiment, a single colony was picked from MHA plate, inoculated in MHBII and incubated overnight at 37 °C with shaking for 18–24 h to get the starter culture. Antibiotic susceptibility testing was conducted according to the CLSI (Clinical & Laboratory Standards Institute) guidelines using the broth microdilution assay. 10 mg/mL stock solutions of test compounds were prepared in DMSO. Bacterial cultures were inoculated in MHBII and optical density (OD) was measured at 600 nm, followed by dilution to achieve ~10^6 CFU/mL. The compounds were tested from 64 to 0.5 mg/L in two-fold serial diluted fashion with 2.5 μL of each concentration added to well of a 96-well round bottom microtiter plate. Later, 97.5 μL of bacterial suspension was added to each well containing either test compound or appropriate controls. […] The MIC is defined as the lowest concentration of the compound at which there is absence of visible growth. For each test compound, MIC determinations were carried out independently three times using duplicate samples.
# MRSA NRS 100 = assay: Broth microdilution MIC, MRSA NRS 100; format: cell-based, S. aureus; conditions: Staphylococcus aureus
# Experimental: as §1
# MRSA NRS 119 = assay: Broth microdilution MIC, MRSA NRS 119; format: cell-based, S. aureus; conditions: Staphylococcus aureus
# Experimental: as §1
# MRSA NRS 129 = assay: Broth microdilution MIC, MRSA NRS 129; format: cell-based, S. aureus; conditions: Staphylococcus aureus
# Experimental: as §1
# MRSA NRS 186 = assay: Broth microdilution MIC, MRSA NRS 186; format: cell-based, S. aureus; conditions: Staphylococcus aureus
# Experimental: as §1
# MRSA NRS 191 = assay: Broth microdilution MIC, MRSA NRS 191; format: cell-based, S. aureus; conditions: Staphylococcus aureus
# Experimental: as §1
# MRSA NRS 192 = assay: Broth microdilution MIC, MRSA NRS 192; format: cell-based, S. aureus; conditions: Staphylococcus aureus
# Experimental: as §1
# MRSA NRS 193 = assay: Broth microdilution MIC, MRSA NRS 193; format: cell-based, S. aureus; conditions: Staphylococcus aureus
# Experimental: as §1
# MRSA NRS 194 = assay: Broth microdilution MIC, MRSA NRS 194; format: cell-based, S. aureus; conditions: Staphylococcus aureus
# Experimental: as §1
# MRSA NRS 198 = assay: Broth microdilution MIC, MRSA NRS 198; format: cell-based, S. aureus; conditions: Staphylococcus aureus
# Experimental: as §1
# VRSA VRS 1 = assay: Broth microdilution MIC, VRSA VRS 1; format: cell-based, S. aureus; conditions: Staphylococcus aureus, VRSA
# Experimental: as §1
# VRSA VRS 4 = assay: Broth microdilution MIC, VRSA VRS 4; format: cell-based, S. aureus; conditions: Staphylococcus aureus, VRSA
# Experimental: as §1
# VRSA VRS 12 = assay: Broth microdilution MIC, VRSA VRS 12; format: cell-based, S. aureus; conditions: Staphylococcus aureus, VRSA
# Experimental: as §1
# S. aureus ATCC 29213 [3] = assay: Drug interaction study (chequerboard assay); format: cell-based
# Experimental: All compounds were freshly prepared for the experiment. […] Following incubation, the fractional inhibitory concentration index (FICI) was calculated with the formula FICI = […], whereby FICA = MIC of drug A in combination/MIC of drug A alone and FICB = MIC of drug B in combination/MIC of drug B alone. A drug combination is considered synergistic when ∑FICI is ≤0.5, indifferent when ∑FICI is >0.5 to 4, and antagonistic when ∑FICI is >4.
# [4] = tested on: 36th Passage S.aureus ATCC 29213 in the presence of Pt-1; assay: microbe, parasite or virus in culture; format: cell-based; conditions: Staphylococcus aureus, ATCC29213
# Experimental: The MICs of the passaged cultures were determined every 3 days and compared to that of wild type S. aureus ATCC 29213. MIC changes were recorded for 36 passages.
# S. aureus ATCC 29213 [5] = assay: Post antibiotic effect (PAE); format: cell-based; conditions: for Time for 1 log10 increase in bacterial cfu count: 1 h exposure
# Experimental: Post antibiotic effect (PAE) was determined as follows. […] Following incubation, cultures were centrifuged and washed twice with pre-warmed MHBII to remove any traces of antibiotics. Finally, cells were resuspended in drug-free MHBII and incubated further at 37 °C. Samples were taken every 1 h, serially diluted, and plated on tryptic soy agar (TSA) for enumeration of CFU. […] CFU observed immediately after the removal of the drug, and C in a similarly treated drug-free control.
# S. aureus ATCC 29213 [6] = assay: Murine superficial skin infection model; format: in vivo; conditions: topical 2% cream, twice daily for 4 days, Swiss mice
# Experimental: The in vivo efficacy of Pt1 was determined in a superficial skin infection model. Briefly, male Swiss mice, 4–6 weeks old, weighing ∼22–25 g, were used throughout the study. Mice were caged alone in an individually vented cage (IVC) to check cross-contamination and to maintain aseptic conditions throughout the experiment. Ketamine and xylazine were prepared in distilled water, 40 mg/kg and 8 mg/kg of body weight, respectively, and injected intraperitoneally (IP) as a mixture of 100 μL in each mouse for anaesthesia. Then, we proceeded with the removal of fur by applying depilatory cream. The area was cleaned with sterile distilled water. Approximately 2 cm^2 of skin area was scratched until it became visibly reddened and glistening without any bleeding. For bacterial infection, a 10 μL droplet containing 10^7 CFU/mL of S. aureus ATCC 29213 was applied to the reddened area of skin. To confirm the infection, post 4 h, untreated mice were sacrificed, skin homogenized, and various dilutions of the treatment groups (6 mice per group) were plated on TSA plates. […] Henceforth, the drug regimen was comprised of twice daily application (in the morning and the evening, with an 8 h interval) for 4 days. Control mice were regularly treated with 25–30 mg each of 2% fusidic acid (LEO Pharma, Ballerup, Denmark), 2% infuzide, and base (vehicle). […]
structure (smiles),measurement,setting,value
"CN[C@H](CC(C)C)C(=O)N[C@H]1C(=O)N[C@@H](CC(N)=O)C(=O)N[C@H]2C(=O)N[C@H]3C(=O)N[C@H](C(=O)N[C@H](C(=O)O)c4cc(O)cc(O)c4-c4cc3ccc4O)[C@H](O)c3ccc(c(Cl)c3)Oc3cc2cc(c3O[C@@H]2O[C@H](CO)[C@@H](O)[C@H](O)[C@H]2O[C@H]2C[C@](C)(N)[C@H](O)[C@H](C)O2)Oc2ccc(cc2Cl)[C@H]1O [Van, Vancomycin]",MIC,[1],0.86 µM
same,MIC,[2],0.86 µM
same,MIC,Bacillus subtilis MW168,< 0.22 µM
same,MIC,MSSA ATCC 29213,1 µg/mL and 0.67 µM
same,MIC,MRSA NRS 100,1.34 µM
same,MIC,MRSA NRS 119,1.34 µM
same,MIC,MRSA NRS 129,0.67 µM
same,MIC,MRSA NRS 186,0.67 µM
same,MIC,MRSA NRS 191,1.34 µM
same,MIC,MRSA NRS 192,0.67 to 1.34 µM
same,MIC,MRSA NRS 193,1.34 µM
same,MIC,MRSA NRS 194,0.67 µM
same,MIC,MRSA NRS 198,1.34 µM
same,MIC,VRSA VRS 1,> 43.1 µM
same,MIC,VRSA VRS 4,> 43.1 µM
same,MIC,VRSA VRS 12,> 43.1 µM
same,MIC,"S. aureus ATCC 29213 [3]; Staphylococcus aureus, ATCC29213",1 µg/mL
same,FIC B,S. aureus ATCC 29213 [3]; antibiotic in combination with Pt1 / alone,1
same,FIC (FICA+FICB),S. aureus ATCC 29213 [3]; combination with Pt1,2
same,Interference,"S. aureus ATCC 29213 [3]; combination with Pt1, synergistic ≤0.5, indifferent >0.5 to 4, antagonistic >4",no interaction
same,MIC,[4],1 µg/mL
same,PAE,S. aureus ATCC 29213 [5]; 1x MIC,~ 2.5 h
same,Time for 1 log10 increase in bacterial cfu count,S. aureus ATCC 29213 [5]; 1x MIC,~ 5 h
same,PAE,S. aureus ATCC 29213 [5]; 5x MIC,~ 2.5 h
same,Time for 1 log10 increase in bacterial cfu count,S. aureus ATCC 29213 [5]; 5x MIC,~ 5 h
same,Time for 1 log10 increase in bacterial cfu count,S. aureus ATCC 29213 [5]; 10x MIC,~ 5 h
same,PAE,"S. aureus ATCC 29213 [5]; 10x MIC, listed as Vancomycin",~ 2.5 h
same,PAE,"S. aureus ATCC 29213 [5]; 10x MIC, listed as vancomycin",2.5 h
CC(=O)O[C@H]1C[C@@]2(C)[C@@H](C[C@@H](O)[C@H]3[C@@]4(C)CC[C@@H](O)[C@@H](C)[C@@H]4CC[C@@]32C)/C1=C(\CCC=C(C)C)C(=O)O [fusidic acid],reduction in bacterial load compared to vehicle-treated group,S. aureus ATCC 29213 [6],~ 2.9 log10 CFU/g
